According to publication PMC5769417, “Single- and Multiple-Dose Trials to Determine the Pharmacokinetics, Safety, Tolerability, and Sex Effect of Oral Ginsenoside Compound K in Healthy Chinese Volunteers” (Frontiers in Pharmacology, 2018):
“And” between values parts separate entries of the source, which are not always exact repeats. Equal values may be shown once. Read-outs that look alike come from different tables or passages of the source.

Experiment: Multiple-dose trial, plasma pharmacokinetics
Format: in vivo, human
Settings: for MRT last / AUC / concentration at 15 day / half-life / Tmax / AUC(0-inf) / AUC(0-t) / MRT inf / Cmax: human, plasma; for AUC: Day 15, read-out: AUCτ (zero to 24 h); for concentration at 15 day: Day 15, steady state, read-out: Cmin
Procedure: Multiple-dose pharmacokinetics: […] Multiple-dose pharmacokinetics: […] All samples were preserved at −70°C and analyzed with a LC-MS/MS (API 4000 LC-MS/MS, ABI Company, Foster City, CA, USA) at the Institute of Clinical Pharmacology, Central South University (Changsha, China). […] An aqueous solution of a stable internal standard (IS for CK: digoxin, Shijiaoke Biological Technology Co. Ltd., Beijing, China; IS for PPD: coumarin, Sigma-Aldrich, St. Louis, USA) and 1 M phosphate buffer were added to 0.5 ml of thawed sample, and analytical standards and quality control (QC) samples were prepared in the same matrix. All samples were treated with 2 ml of methyl tert-butyl ether (MTBE, CNW technologies GmbH, Duesseldorf, Germany) to precipitate the bulk of plasma proteins. After mechanical shock by mixing for 10 min and a subsequent centrifugation (4,000 rpm, 4°C, 10 min), 1.4 ml of the supernatant was transferred and blow-dried with nitrogen in a water bath at 40°C. Lastly, the residue was dissolved in 100 μl of mobile phase and then was subjected to a mechanical shock by mixing, and centrifuged. The supernatant was subsequently injected into the column for analysis. […] Accuracy and precision of the assay were determined by evaluating the performance of the assay controls. Over the quantification range, the accuracy of the QC samples varied from 85 to 115% and the intra- and inter-assay imprecision was <15%. […] The area under the curve (AUC) from time zero to the last time point (AUClast) and the AUC extrapolated to infinity (AUCinf) were calculated using the linear trapezoidal rule. The slope (elimination rate constant, K) of the terminal phase of the plasma concentration-time profile was determined, using a weighting factor of 1, by the method of least squares (log-linear regression of at least three data points). The t1/2 was estimated as (ln2)/K. […] The apparent volume of distribution (V/F) was equal to (CL/F)/K. The mean residence time (MRT) was calculated as the area under the first moments curve (AUMC) divided by AUC. The dose-normalized PK parameters e.g., Cmax/D and AUClast/D, were obtained by dividing each PK result by the administered dose. The cumulative excretion rate was calculated as the amount of unchanged drug in the urine over a time interval divided by the dose and was expressed as thousand points (‰). On day 15 in the multiple-dose trial, the PK parameters, such as t1/2, CL/F, and V/F at steady state were calculated using the same method as that used for the single-dose trial. In addition, the Tmax at steady state (Tmax,ss), Cmax at steady state (Cmax,ss), and Cmin,ss were obtained from experimental observation after the steady state during the multiple-dose trial. […] The average steady-state drug concentration (Cavg) is calculated as AUCτ/τ, and the fluctuation ratio was calculated as (Cmax,ss − Cmin,ss)/Cavg. The accumulation index was calculated using dosing interval and elimination rate constant as in the following equation: 1/(1 − e^−Kτ).

[1] = 100 mg oral after breakfast, Day 1
[2] = 100 mg qd oral after breakfast, Day 15
[3] = 200 mg oral after breakfast, Day 1
[4] = 200 mg qd oral after breakfast, Day 15
[5] = 400 mg oral after breakfast, Day 1
[6] = 400 mg qd oral after breakfast, Day 15
[7] = both sexes, 100 mg qd oral after breakfast
[8] = both sexes, 200 mg qd oral after breakfast
[9] = both sexes, 400 mg qd oral after breakfast
[10] = both sexes, po, 100 mg, 100 mg oral after breakfast, Day 1
[11] = both sexes, po, 100 mg, 100 mg qd oral after breakfast, Day 15
[12] = both sexes, po, 200 mg, 200 mg oral after breakfast, Day 1
[13] = both sexes, po, 200 mg, 200 mg qd oral after breakfast, Day 15
[14] = both sexes, po, 400 mg, 400 mg oral after breakfast, Day 1
[15] = both sexes, po, 400 mg, 400 mg qd oral after breakfast, Day 15

## CC(C)=CCC[C@](C)(OC1O[C@H](CO)[C@@H](O)[C@H](O)[C@H]1O)[C@H]1CC[C@]2(C)[C@@H]1[C@H](O)C[C@@H]1[C@@]3(C)CC[C@H](O)C(C)(C)[C@@H]3CC[C@]12C (stereo partly drawn) [CK, 20-O-beta-D-glucopyranosyl-20(S)-protopanaxadiol]
[1]
  CL/F: 11.6 ± 3.0 l·h ^−1
  V/F: 402 ± 54 L
[2]
  AUMCτ (zero to 24 h): 60141.5 ± 17696.2 ng·h/mL
  CL/F: 13.4 ± 3.6 l·h ^−1
  Fluctuation: 259.42% and 259.42 ± 48.85%
  V/F: 661 ± 242 L
100 mg qd, 1/(1 − e^−Kτ)
  Accumulation index: 2.62 and 2.62 ± 0.62
[3]
  CL/F: 9.6 ± 3.1 l·h ^−1
  V/F: 326 ± 137 L
[4]
  AUMCτ (zero to 24 h): 179177.1 ± 49122.9 ng·h/mL
  CL/F: 8.6 ± 2.5 l·h ^−1
  Fluctuation: 289.25% and 289.25 ± 35.75%
  V/F: 455 ± 152 L
200 mg qd, 1/(1 − e^−Kτ)
  Accumulation index: 2.78 and 2.78 ± 0.73
[5]
  CL/F: 9.4 ± 2.4 l·h ^−1
  V/F: 358 ± 118 L
[6]
  AUMCτ (zero to 24 h): 306621.5 ± 78711.0 ng·h/mL
  CL/F: 10.3 ± 3.0 l·h ^−1
  Fluctuation: 273.98% and 273.98 ± 37.16%
  V/F: 514 ± 188 L
400 mg qd, 1/(1 − e^−Kτ)
  Accumulation index: 2.60 and 2.60 ± 0.31
100–400 mg qd
  accumulation index range: 2.60–2.78
Day 1, Female
  AUCinf/D, dose-normalized AUCinf: 116.58 ± 28.07^* h·ng·ml^−1·mg^−1
  AUClast/D, dose-normalized AUClast: 114.23 ± 27.97 ng·h/mL/mg
  Cmax/D, dose-normalized Cmax: 14.49 ± 4.07 ng/mL/mg
Day 1, Male
  AUCinf/D, dose-normalized AUCinf: 94.22 ± 24.54 ng·h/mL/mg
  AUClast/D, dose-normalized AUClast: 92.27 ± 24.00 ng·h/mL/mg
  Cmax/D, dose-normalized Cmax: 11.00 ± 4.25 ng/mL/mg
Day 1, all subjects
  AUCinf/D, dose-normalized AUCinf: 105.41 ± 28.29 ng·h/mL/mg
  AUClast/D, dose-normalized AUClast: 103.25 ± 27.94 ng·h/mL/mg
  Cmax/D, dose-normalized Cmax: 12.74 ± 4.46 ng/mL/mg
Day 1, between sexes
  AUCinf/D, GMR (95% CI): 1.25 (1.03–1.51)
  AUClast/D, GMR (95% CI): 1.25 (1.03–1.51)
  Cmax/D, GMR (95% CI): 1.37 (1.04–1.80)
Day 1 vs Day 15
  AUCinf/D, GMR (95% CI): 0.75 (0.64–0.87)
  AUClast/D, GMR (95% CI): 0.79 (0.67–0.91)
  Cmax/D, GMR (95% CI): 1.00 (0.82–1.22)
Day 15, Female
  AUCinf/D, dose-normalized AUCinf: 153.33 ± 30.98 ng·h/mL/mg
  AUClast/D, dose-normalized AUClast: 143.45 ± 29.33 ng·h/mL/mg
  Cmax/D, dose-normalized Cmax: 14.25 ± 3.38 ng/mL/mg
Day 15, Male
  AUCinf/D, dose-normalized AUCinf: 132.87 ± 52.60 ng·h/mL/mg
  AUClast/D, dose-normalized AUClast: 123.74 ± 47.85 ng·h/mL/mg
  Cmax/D, dose-normalized Cmax: 11.18 ± 5.19 ng/mL/mg
Day 15, all subjects
  AUCinf/D, dose-normalized AUCinf: 143.10 ± 43.67 ng·h/mL/mg
  AUClast/D, dose-normalized AUClast: 133.59 ± 40.26 ng·h/mL/mg
  Cmax/D, dose-normalized Cmax: 12.71 ± 4.58 ng/mL/mg
Day 15, between sexes
  AUCinf/D, GMR (95% CI): 1.21 (0.96–1.53)
  AUClast/D, GMR (95% CI): 1.21 (0.96–1.52)
  Cmax/D, GMR (95% CI): 1.36 (1.04–1.76)
Both sexes, 100 mg oral after breakfast, Day 1
  MRT last: 12.2 ± 1.4 h
[7]
  AUC: 8000 ± 2320 ng·h/mL
  concentration at 15 day: 333 ± 96.7 ng/mL
Both sexes, 200 mg oral after breakfast, Day 1
  MRT last: 12.6 ± 1.6 h
[8]
  AUC: 24700 ± 6290 ng·h/mL
  concentration at 15 day: 1030 ± 262 ng/mL
Both sexes, 400 mg oral after breakfast, Day 1
  MRT last: 12.5 ± 1 h
[9]
  AUC: 41400 ± 10400 ng·h/mL
  concentration at 15 day: 1730 ± 432 ng/mL
Both sexes, oral, 400 mg, Day 1, 100, 200 or 400 mg, read-out: mean t1/2 across the dose groups
  half-life: 23.4 to 26.1 h
Both sexes, oral, 400 mg, Day 1, 100, 200 or 400 mg, read-out: median Tmax across the dose groups
  Tmax: 2.5 to 3 h
Both sexes, oral, Day 1, all subjects, read-out: Tmax, median (range)
  Tmax: 3 h
Both sexes, oral, Day 1, all subjects, read-out: t1/2 (converted)
  half-life: 24.9 ± 5.8 h
Both sexes, oral, Day 15, all subjects, read-out: Tmax, median (range)
  Tmax: 3.5 h
Both sexes, oral, Day 15, all subjects, read-out: t1/2 (converted)
  half-life: 35.3 ± 9.6 h
[10]
  AUC(0-inf): 9070 ± 2060 ng·h/mL
  AUC(0-t): 8880 ± 1990 ng·h/mL
  MRT inf: 14.6 ± 2.1 h
Both sexes, po, 100 mg, 100 mg oral after breakfast, Day 1, read-out: Cmax
  Cmax: 1120 ± 411 ng/mL
Both sexes, po, 100 mg, 100 mg oral after breakfast, Day 1, read-out: t1/2 (converted)
  half-life: 25.2 ± 5.6 h
[11]
  AUC(0-inf): 11100 ± 3230 ng·h/mL
  AUC(0-t): 10400 ± 3010 ng·h/mL
  MRT inf: 17 ± 2.2 h
Both sexes, po, 100 mg, 100 mg qd oral after breakfast, Day 15, read-out: Cmax
  Cmax: 934 ± 323 ng/mL
Both sexes, po, 100 mg, 100 mg qd oral after breakfast, Day 15, read-out: Tmax, median (range)
  Tmax: 3.8 h
Both sexes, po, 100 mg, 100 mg qd oral after breakfast, Day 15, read-out: t1/2 (converted)
  half-life: 34.6 ± 10.5 h
[12]
  AUC(0-inf): 22700 ± 6350 ng·h/mL
  AUC(0-t): 22300 ± 6320 ng·h/mL
  MRT inf: 14.9 ± 2 h
Both sexes, po, 200 mg, 200 mg oral after breakfast, Day 1, read-out: Cmax
  Cmax: 2880 ± 984 ng/mL
Both sexes, po, 200 mg, 200 mg oral after breakfast, Day 1, read-out: Tmax, median (range)
  Tmax: 3 h
Both sexes, po, 200 mg, 200 mg oral after breakfast, Day 1, read-out: t1/2 (converted)
  half-life: 23.4 ± 7.9 h
[13]
  AUC(0-inf): 34000 ± 9060 ng·h/mL
  AUC(0-t): 31600 ± 8130 ng·h/mL
  MRT inf: 16.1 ± 1.6 h
Both sexes, po, 200 mg, 200 mg qd oral after breakfast, Day 15, read-out: Cmax
  Cmax: 3180 ± 877 ng/mL
Both sexes, po, 200 mg, 200 mg qd oral after breakfast, Day 15, read-out: Tmax, median (range)
  Tmax: 3.5 h
Both sexes, po, 200 mg, 200 mg qd oral after breakfast, Day 15, read-out: t1/2 (converted)
  half-life: 37.3 ± 12.3 h
[14]
  AUC(0-inf): 44900 ± 11200 ng·h/mL
  AUC(0-t): 43900 ± 11100 ng·h/mL
  MRT inf: 15.2 ± 1.5 h
Both sexes, po, 400 mg, 400 mg oral after breakfast, Day 1, read-out: Cmax
  Cmax: 5060 ± 1650 ng/mL
Both sexes, po, 400 mg, 400 mg oral after breakfast, Day 1, read-out: Tmax, median (range)
  Tmax: 3 h
Both sexes, po, 400 mg, 400 mg oral after breakfast, Day 1, read-out: t1/2 (converted)
  half-life: 26.1 ± 3.3 h
[15]
  AUC(0-inf): 59200 ± 13300 ng·h/mL
  AUC(0-t): 55200 ± 12800 ng·h/mL
  MRT inf: 17.9 ± 1.8 h
Both sexes, po, 400 mg, 400 mg qd oral after breakfast, Day 15, read-out: Cmax
  Cmax: 5170 ± 1500 ng/mL
Both sexes, po, 400 mg, 400 mg qd oral after breakfast, Day 15, read-out: t1/2 (converted)
  half-life: 34.2 ± 5.3 h
female, oral, Day 1, Female, read-out: Tmax, median (range)
  Tmax: 3 h
female, oral, Day 1, Female, read-out: t1/2 (converted)
  half-life: 26.4 ± 6.2 h
female, oral, Day 15, Female, read-out: Tmax, median (range)
  Tmax: 3.5 h
female, oral, Day 15, Female, read-out: t1/2 (converted)
  half-life: 36.3 ± 1.05 h
male, oral, Day 1, Male, read-out: Tmax, median (range)
  Tmax: 3 h
male, oral, Day 1, Male, read-out: t1/2 (converted)
  half-life: 23.3 ± 5.2 h
male, oral, Day 15, Male, read-out: Tmax, median (range)
  Tmax: 3.5 h
male, oral, Day 15, Male, read-out: t1/2 (converted)
  half-life: 34.3 ± 9.8 h
Once daily
  steady state reached: after the 7th administration
overall
  Accumulation index: ~2.66
